# Measurements as given in ChEMBL document CHEMBL1201862, “PubChem BioAssay data set” (2004).
#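 96-well plates; 48 h exposure; 5 concentrations. Endpoints by linear interpolation between flanking doses. Not reached: highest tested concentration assigned. Abbreviation: GI50, concentration required for 50% inhibition of growth.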 Calls of active or inactive are those of the source. Cut-off read from the data, not from the text of the source: active = GI50 up to about 1.1 µM and inactive = higher.
# Columns and labels:
# Assay in all cases: NCI tumour cell line growth inhibition, 48 h
# [1] = tested on: NCI-H226
# [2] = tested on: SNB-19
# [3] = tested on: HT-29
# [4] = tested on: LXFL 529
# [5] = tested on: HCC 2998
# [6] = tested on: NCI-H460
# [7] = tested on: OVCAR-4
# [8] = tested on: DMS-273
# [9] = tested on: SNB-75
# [10] = tested on: UACC-257
# [11] = tested on: KM-20L2
# [12] = tested on: DLD-1
# [13] = tested on: EKVX
# [14] = tested on: SW-620
# [15] = tested on: RXF 631
# [16] = tested on: COLO 205
# [17] = tested on: SK-MEL-5
# [18] = tested on: K562
# [19] = tested on: HL-60
# [20] = tested on: CAKI-1
# [21] = tested on: OVCAR-5
# [22] = tested on: ACHN
# [23] = tested on: SN12C
# [24] = tested on: A498
# [25] = tested on: HCT-15
# [26] = tested on: SK-MEL-2
# [27] = tested on: 786-0
# [28] = tested on: KM12
# [29] = tested on: MOLT-4
# [30] = tested on: OVCAR-3
# [31] = tested on: SK-OV-3
# [32] = tested on: A549
# [33] = tested on: SR
# [34] = tested on: OVCAR-8
# [35] = tested on: SF-539
# [36] = tested on: HCT-116
# [37] = tested on: CCRF-CEM
# [38] = tested on: Malme-3M
# [39] = tested on: M19-MEL
# [40] = tested on: NCI-H23
# [41] = tested on: LOX IMVI
# [42] = tested on: HOP-18
# [43] = tested on: IGROV-1
# [44] = tested on: UO-31
# [45] = tested on: RXF 393
# [46] = tested on: SK-MEL-28
# [47] = tested on: U-251
# [48] = tested on: NCI-H522
# [49] = tested on: HOP-92
# [50] = tested on: HOP-62
# [51] = tested on: M14
# [52] = tested on: TK-10
# [53] = tested on: RPMI-8226
# [54] = tested on: UACC-62
# [55] = tested on: XF498
# [56] = tested on: SNB-78
# [57] = tested on: DMS-114
# [58] = tested on: SF-268
# [59] = tested on: SF-295
smiles,measurement,setting,value
O/N=C1/C(=C/c2ccc(OCc3ccccc3)cc2)CCCC1C(NO)c1ccc(OCc2ccccc2)cc1 (centres undefined),GI50,[1],> 100 µM (inactive)
same,GI50,[2],80.9 µM (inactive)
same,GI50,[3],5.24 µM (inactive)
same,GI50,[4],12.7 µM (inactive)
same,GI50,[5],46 µM (inactive)
same,GI50,[6],14.2 µM (inactive)
same,GI50,[7],6.41 µM (inactive)
same,GI50,[8],13 µM (inactive)
same,GI50,[9],34 µM (inactive)
same,GI50,[10],10 µM (inactive)
same,GI50,[11],8.38 µM (inactive)
same,GI50,[12],10.2 µM (inactive)
same,GI50,[13],5.43 µM (inactive)
same,GI50,[14],17.4 µM (inactive)
same,GI50,[15],8.47 µM (inactive)
same,GI50,[16],16.9 µM (inactive)
same,GI50,[17],6.04 µM (inactive)
same,GI50,[18],9.53 µM (inactive)
same,GI50,[19],5.57 µM (inactive)
same,GI50,[20],5.87 µM (inactive)
same,GI50,[21],> 100 µM (inactive)
same,GI50,[22],17 µM (inactive)
same,GI50,[23],3.31 µM (inactive)
same,GI50,[24],> 100 µM (inactive)
same,GI50,[25],6.24 µM
same,GI50,[26],8.55 µM (inactive)
same,GI50,[27],18.5 µM (inactive)
same,GI50,[28],24.2 µM (inactive)
same,GI50,[29],5.6 µM (inactive)
same,GI50,[30],14.2 µM (inactive)
same,GI50,[31],> 100 µM (inactive)
same,GI50,[32],> 100 µM (inactive)
same,GI50,[33],11.8 µM (inactive)
same,GI50,[34],26.7 µM (inactive)
same,GI50,[35],24.9 µM (inactive)
same,GI50,[36],8.97 µM (inactive)
same,GI50,[37],11.1 µM (inactive)
same,GI50,[38],46.5 µM (inactive)
same,GI50,[39],22.2 µM (inactive)
same,GI50,[40],12.7 µM (inactive)
same,GI50,[41],4.05 µM (inactive)
same,GI50,[42],33 µM (inactive)
same,GI50,[43],> 100 µM (inactive)
same,GI50,[44],14.6 µM (inactive)
same,GI50,[45],3.42 µM (inactive)
same,GI50,[46],48.4 µM (inactive)
same,GI50,[47],10.5 µM (inactive)
same,GI50,[48],6.27 µM (inactive)
same,GI50,[49],11.1 µM (inactive)
same,GI50,[50],38.9 µM (inactive)
same,GI50,[51],4.98 µM (inactive)
COc1ccc(-c2c3ccccc3c(-c3ccc(OC)cc3)c3ccccc23)cc1,GI50,[1],> 100 µM (inactive)
same,GI50,[2],> 100 µM (inactive)
same,GI50,[3],> 100 µM (inactive)
same,GI50,[4],> 100 µM (inactive)
same,GI50,[5],> 100 µM (inactive)
same,GI50,[6],> 100 µM (inactive)
same,GI50,[7],> 100 µM (inactive)
same,GI50,[52],> 100 µM (inactive)
same,GI50,[8],> 100 µM (inactive)
same,GI50,[9],29.5 µM (inactive)
same,GI50,[53],> 100 µM (inactive)
same,GI50,[54],> 100 µM (inactive)
same,GI50,[10],> 100 µM (inactive)
same,GI50,[11],> 100 µM (inactive)
same,GI50,[12],> 100 µM (inactive)
same,GI50,[13],> 100 µM (inactive)
same,GI50,[14],> 100 µM (inactive)
same,GI50,[16],> 100 µM (inactive)
same,GI50,[17],> 100 µM (inactive)
same,GI50,[18],> 100 µM (inactive)
same,GI50,[19],> 100 µM (inactive)
same,GI50,[20],> 100 µM (inactive)
same,GI50,[21],> 100 µM (inactive)
same,GI50,[22],> 100 µM (inactive)
same,GI50,[55],> 100 µM (inactive)
same,GI50,[23],> 100 µM (inactive)
same,GI50,[24],> 100 µM (inactive)
same,GI50,[25],> 100 µM
same,GI50,[26],> 100 µM (inactive)
same,GI50,[27],> 100 µM (inactive)
same,GI50,[28],> 100 µM (inactive)
same,GI50,[29],> 100 µM (inactive)
same,GI50,[30],> 100 µM (inactive)
same,GI50,[31],> 100 µM (inactive)
same,GI50,[32],> 100 µM (inactive)
same,GI50,[33],> 100 µM (inactive)
same,GI50,[34],> 100 µM (inactive)
same,GI50,[35],> 100 µM (inactive)
same,GI50,[36],> 100 µM (inactive)
same,GI50,[56],> 100 µM (inactive)
same,GI50,[37],> 100 µM (inactive)
same,GI50,[38],> 100 µM (inactive)
same,GI50,[39],> 100 µM (inactive)
same,GI50,[57],> 100 µM (inactive)
same,GI50,[40],> 100 µM (inactive)
same,GI50,[41],> 100 µM (inactive)
same,GI50,[42],> 100 µM (inactive)
same,GI50,[43],> 100 µM (inactive)
same,GI50,[44],> 100 µM (inactive)
same,GI50,[58],> 100 µM (inactive)
same,GI50,[45],> 100 µM (inactive)
same,GI50,[46],> 100 µM (inactive)
same,GI50,[47],> 100 µM (inactive)
same,GI50,[48],> 100 µM (inactive)
same,GI50,[49],> 100 µM (inactive)
same,GI50,[50],> 100 µM (inactive)
same,GI50,[51],> 100 µM (inactive)
same,GI50,[59],> 100 µM (inactive)
